Assay results from ChEMBL document CHEMBL1157733, “Isolation, structure, and bioactivities of abiesadines A-Y, 25 new diterpenes from Abies georgei Orr” (Bioorg Med Chem, 2010).
In brackets after ≈: the same amount, converted by molar mass.

Assays:
[1] = Inhibition of TNF-alpha-induced NF-kappaB activity in human pNF-kappaB-luc-293 cells; assay type: cell-based; conditions: HEK293
[2] = Antiproliferative activity against human QGY7703 cells; assay type: functional, cell-based; conditions: QGY-7703
[3] = test system: LoVo; assay: Antiproliferative activity against human LoVo cells; assay type: functional, cell-based
[4] = test system: RAW264.7; assay: Antiinflammatory activity in mouse RAW264.7 cells assessed as inhibition of LPS-induced NO release; assay type: functional, cell-based

Row | Compound | IC50 [1] [µg/mL] | IC50 [3] [µg/mL] | IC50 [4] [µg/mL] | IC50 [2] [µg/mL]
1 | CC(C)c1ccc(O)c(CC[C@@H]2[C@@](C)(O)CCC[C@@]2(C)C(=O)O)c1 [ABIESADINE B] | > 100 | > 25 | > 100 | > 25
2 | C/C(=C\CO)CCC1[C@](C)(O)CC[C@H]2C(C)(C)CCC[C@]12C (stereo not given in full) | > 100 | > 25 | > 100 | > 25
3 | CC(C)c1ccc2c(c1)CC[C@H]1[C@](C)(COC(=O)CCC(=O)O)CCC[C@]21C | > 100 | > 25 | > 100 | > 25
4 | CC(C)(O)c1ccc2c(c1)CC[C@H]1[C@](C)(CO)CCC[C@]21C | > 100 | > 25 | > 100 | > 25
5 | COC(=O)CCC(=O)OC[C@]1(C)CCC[C@]2(C)c3ccc(C(C)(C)O)cc3CC[C@@H]12 [ABIESADINE K] | > 100 | > 25 | 52.1 (≈ 125 µM) | > 25
6 | CC(C)c1ccc2c(c1)[C@H](O)C[C@H]1[C@](C)(COC(=O)CCC(=O)O)CCC[C@]21C [ABIESADINE F] | > 100 | > 25 | > 100 | > 25
7 | C=C/C(C)=C\CC1[C@](C)(O)CC[C@H]2C(C)(C)CCC[C@]12C (stereo not given in full) | > 100 | 20.3 (≈ 69.9 µM) | > 100 | 25 (≈ 86.1 µM)
8 | CO[C@@H]1C[C@H]2[C@](C)(COC(=O)CCC(=O)O)CCC[C@]2(C)c2ccc(C(C)C)cc21 [ABIESADINE G] | > 100 | > 25 | > 100 | > 25
9 | CC(C)c1ccc2c(c1)CC[C@H]1[C@](C)(CO)CCC[C@]21C [POMIFERIN A] | > 100 | 9.2 (≈ 32.1 µM) | > 100 | > 25
10 | C=C[C@@](C)(O)[C@H]1CC2[C@@]3(C)CCCC(C)(C)C3CC[C@@]2(C)O1 (stereo not given in full) | 8.7 (≈ 28.4 µM) | 23.1 (≈ 75.4 µM) | 21.6 (≈ 70.5 µM) | 15.7 (≈ 51.2 µM)

The next lines start with results.

Row | IC50 [1] [µg/mL] | IC50 [3] [µg/mL] | IC50 [4] [µg/mL] | Compound | IC50 [2] [µg/mL]
11 | > 100 | 9.2 (≈ 30.4 µM) | > 100 | CC(C)c1ccc2c(c1)[C@H](O)C[C@H]1[C@](C)(CO)CCC[C@]21C | > 25
12 | > 100 | > 25 | 42.7 (≈ 142 µM) | CC(C)c1ccc2c(c1)CC[C@H]1[C@](C)(C(=O)O)CCC[C@]21C [DEHYDROABIETIC ACID] | > 25
13 | > 100 | > 25 | > 100 | CC(C)(O)c1ccc2c(c1)[C@H](O)C[C@H]1[C@](C)(C(=O)O)CCC[C@]21C | > 25
14 | > 100 | > 25 | > 100 | COC(C)(C)c1ccc2c(c1)[C@H](O)C[C@H]1[C@](C)(C(=O)O)CCC[C@]21C [ABIESADINE O] | > 25
15 | > 100 | > 25 | 44 (≈ 133 µM) | CC(C)(O)c1ccc2c(c1)C(=O)C[C@H]1[C@](C)(C(=O)O)CCC[C@]21C | > 25
